Data reported in patent US20190388360A1, “PHARMACEUTICAL PATCH COMPRISING LIDOCAINE AND DICLOFENAC FOR TREATING NEUROPATHIC PAIN” (TEIKOKU SEIYAKU CO., LTD., priority 2017, published 2019).

Columns and labels:
CFA-hindpaw inflammation = experiment: CFA-hindpaw inflammation, paw pressure test (CFA-PPT), intraperitoneal injection; type: in vivo, rat; conditions: ip; Lidocaine dose range 10 mg/kg to 46.4 mg/kg, Diclofenac dose range 21.5 mg/kg to 100 mg/kg
Protocol: An interaction study was performed as a single dose study in the CFA-hindpaw inflammation, paw pressure test.
In comparative example 1 and inventive examples 1 to 4 described below, a compound or combination of compounds was administered by intraperitoneal injection (FIGS. 1 to 9).
(§1) The pain was measured by pressing a pointer on the inflamed paw. The pointer exerts a force, increasing at a constant rate, monitored by a linear scale. Pain is deemed to be perceived one the rat starts to withdraw the paw. This value (withdrawal threshold in gram) is the pressure at which the animal feels pain (cut-off 450 g). Efficacy of the test compounds is expressed as a percent change of withdrawal threshold after compound administration to the pre-value (withdrawal threshold before compound administration).

[1] = test system: CFA-induced paw edema / mechanical-hyperalgesia; experiment: CFA-hindpaw inflammation, paw pressure test (CFA-PPT), topical application to the paw as ointment or solution; type: in vivo, male albino rats; conditions: Lidocaine 30 mg/ml to 60 mg/ml, Diclofenac 40 mg/ml to 80 mg/ml
Protocol: In comparative example 2 and inventive examples 5 to 8 as described below, a compound or combination of compounds was administered topically to the paw by means of an ointment or solution (FIGS. 10 to 18).
The efficacy was tested when a compound or a compositions of compounds was administered topically as an ointment or a solution. The study was performed on male albino rats (150-180 g body weight) to which an edema of paw was induced by injection of Complete Freunds Adjuvant (CFA). CFA is a composition of inactivated and dried Myobacteria tuberculoses, emulsified in mineral oil which is used as an immunopotentiator causing a painful reaction that lasts 7-8 days after subcutaneous injection.
The studies of comparative example 2 and inventive examples 5 to 8 were performed according to the following procedure: 50 μL of CFA were injected sub plantar into the right hind paw, inducing mechanical-hyperalgesia after 24 hours. […]
as §1, with “Pain is deemed to be perceived one the rat starts to withdraw the paw. This value (withdrawal threshold in gram) is the pressure at which the animal feels pain (cut-off 450 g).” left out

Compound | efficacy when administered alone (CFA-hindpaw inflammation) | efficacy when topically administered alone [1]
O=C(O)Cc1ccccc1Nc1c(Cl)cccc1Cl [Diclofenac, 2-(2,6-dichloranilino) phenylacetic acid] | dose dependent efficacy | dose dependent efficacy
CCN(CC)CC(=O)Nc1c(C)cccc1C [Lidocaine, 2-(diethylamino)-N-(2,6-dimethylphenyl)acetamide] | dose dependent efficacy | dose dependent efficacy
